The experiment has as its system passive sensitised guinea pig lung parenchyma strips. The experiment in a line: Inhibition of the antigen-caused constriction of passive sensitised guinea pig lung parenchyma strips in vitro (organ bath). The format is cell-based. The note with it: Cavia porcellus; concentration 10 μM; ovalbumin-caused constriction, 20 min pre-incubation at 37° C.; % reduction of constriction amplitude vs untreated control constrictions; read-out: superfusion inhibition (%). Here is the method: Inhibition of the antigen-caused constriction of passive sensitised guinea pig lung parenchyma strips in vitro (organ bath)
For the in vitro investigation of the compounds according to the invention, the inhibition of the antigen-caused constriction of passive sensitised guinea pig lung parenchyma strips was measured, as described in the following:
Pribright white guinea pigs were stunned by a neck blow and exsanguinated. The lungs were rinsed substantially free of blood in situ with Krebs buffer, pH 7.4.
Subsequently, the lungs were removed, cut up into strips (about 20×4×4 mm) and the strips passively sensitised for one hour at room temperature with a 1:50 dilution of a homologous anti-ovalbumin antiserum and then washed 1× with Krebs buffer.
The antiserum was previously produced according to DAVIES in guinea pigs of the same strain by repeated injection of ovalbumin (2×crystallised) with addition of complete Freund's adjuvant.
Until its use, the antiserum was stored at -18° C. undiluted.
Subsequently, the lung strips were suspended individually on an isometric measurement sensor with an initial tension of 1.2 g.
Thereafter, the baths were filled with Krebs buffer and continously gassed at 37° C. with O2 (95%) and CO2 (5%). The constrictions of the lung strips were recorded on a recorder via an amplifier.
After 30 minutes acclimatisation phase, histamine control spasms were produced for the recognition of the reaction ability of the organ pieces, washed, subsequently the test substance pre-incubated at 37° C. for 20 minutes and thereafter the ovalbumin-caused constriction initiated.
The inhibition actions of the compounds according to the invention were expressed as percentage reduction of the constriction amplitude of the "samples with test substance" in relationship to the "untreated control constrictions".

SMILES strings stand for the structures.

A word on the inhibition: it is the change of the read-out against control, counted positive when it falls. Take `O=C(O)c1ccccc1SCCCCOc1ccc(C=Cc2ccncc2)cc1` [Example 12, 2-{4-{4-[2-(4-Pyridinyl)-ethenyl]-phenoxy}-butylthio}-benzoic acid]: the inhibition at 10 µM was 42%.

For `O=C(O)c1ccccc1SCCCOc1ccc(CCc2ccncc2)cc1` [Example 14, 2-{3-{4-[2-(4-Pyridinyl)-ethyl]-phenoxy}-propylthio}-benzoic acid], the inhibition at 10 µM is 56%.

As to `C(=Cc1ccc(OCCCCc2nnn[nH]2)cc1)c1ccncc1` [Example 15, 5-{4-{4-[2-(4-Pyridinyl)-ethenyl]-phenoxy}butyl}-1H-tetrazole], the inhibition at 10 µM came to 56%.

Turning to `O=C(CCCOc1ccc(CCc2ccncc2)cc1)Nc1nnn[nH]1` [Example 18b], the inhibition at 10 µM is 32%.

With `O=C(CCCCOc1ccccc1C=Cc1ccccn1)Nc1nnn[nH]1` [Example 18c, 5-{2-[2-(2-pyridinyl)-ethenyl]-phenoxy}-valeric acid N-(1H-tetrazol-5-yl)-amide], the inhibition at 10 µM is 33%.

Turning to `O=C(CCCCOc1ccccc1CCc1ccccn1)Nc1nnn[nH]1` [Example 18h, 5-{2-[2-(2-pyridinyl)-ethyl]-phenoxy}-valeric acid N-(1H-tetrazol-5-yl)-amide], the inhibition at 10 µM came out at 53%.

Values taken from US5399575A, “Pyridine compounds which have useful pharmaceutical activity” (Boehringer Mannheim GmbH, priority 1990, dated 1995).
